The record followed here is paper PMC5218480 (PLoS ONE, 2017).

This assay has as its system MV-4-11 cells. The assay is described as follows: Gene expression microarray analysis (Affymetrix PrimeView) and GSEA. It is filed as cell-based, human. The arrangement: RFU PODN (11730768_x_at) / Fold change /veh PODN (11730768_x_at) / RFU LINC00158 (11744669_a_at) / Fold change /veh LINC00158 (11744669_a_at) / RFU DUSP10 (11751237_a_at) / Fold change /veh DUSP10 (11751237_a_at) / RFU ID3 (11757404_x_at) / Fold change /veh ID3 (11757404_x_at) / RFU PLEKHG5 (11737974_s_at) / Fold change /veh PLEKHG5 (11737974_s_at) / RFU LRRC4B (11730491_at) / Fold change /veh LRRC4B (11730491_at) / RFU GIMAP4 (11747438_a_at) / Fold change /veh GIMAP4 (11747438_a_at) / RFU KRT8 (11758183_x_at) / Fold change /veh KRT8 (11758183_x_at) / RFU CNN1 (11734310_a_at) / Fold change /veh CNN1 (11734310_a_at) / RFU VPS37D (11726825_at) / Fold change /veh VPS37D (11726825_at) / RFU C10orf10 (11716522_x_at) / Fold change /veh C10orf10 (11716522_x_at) / RFU KIR2DL2 /// KIR2DL4 /// KIR2DL5A /// KIR2DL5B /// KIR2DS1 /// KIR2DS2 /// KIR2DS3 /// KIR2DS4 /// KIR3DL3 /// KIR3DL3 /// KIR3DS1 (11738374_at) / Fold change /veh KIR2DL2 /// KIR2DL4 /// KIR2DL5A /// KIR2DL5B /// KIR2DS1 /// KIR2DS2 /// KIR2DS3 /// KIR2DS4 /// KIR3DL3 /// KIR3DL3 /// KIR3DS1 (11738374_at) / RFU C1QL1 (11718748_at) / Fold change /veh C1QL1 (11718748_at) / RFU TMPRSS4 (11747572_a_at) / Fold change /veh TMPRSS4 (11747572_a_at) / RFU HAMP (11756126_x_at) / Fold change /veh HAMP (11756126_x_at) / RFU RNFT2 (11725882_a_at) / Fold change /veh RNFT2 (11725882_a_at) / RFU NR4A2 (11747474_a_at) / Fold change /veh NR4A2 (11747474_a_at) / RFU ABCC12 (11746883_a_at) / Fold change /veh ABCC12 (11746883_a_at) / RFU TMEM136 (11760407_x_at) / Fold change /veh TMEM136 (11760407_x_at) / RFU CLDN22 /// WWC2 (11732394_at) / Fold change /veh CLDN22 /// WWC2 (11732394_at) / RFU HLA-DPB1 (11760878_x_at) / Fold change /veh HLA-DPB1 (11760878_x_at) / RFU SPINT1 (11716480_a_at) / Fold change /veh SPINT1 (11716480_a_at) / RFU GAP43 (11754022_s_at) / Fold change /veh GAP43 (11754022_s_at) / RFU A4GNT (11735810_at) / Fold change /veh A4GNT (11735810_at) / RFU PRB3 (11715151_x_at) / Fold change /veh PRB3 (11715151_x_at) / RFU TUBB4B (11761932_at) / Fold change /veh TUBB4B (11761932_at) / RFU CAPN14 (11732068_a_at) / Fold change /veh CAPN14 (11732068_a_at) / RFU TMCC2 (11721928_a_at) / Fold change /veh TMCC2 (11721928_a_at) / RFU IRGQ (11745062_a_at) / Fold change /veh IRGQ (11745062_a_at) / RFU FAM174B (11720279_a_at) / Fold change /veh FAM174B (11720279_a_at) / RFU TMPRSS4 (11748680_a_at) / Fold change /veh TMPRSS4 (11748680_a_at) / RFU FAM212B (11763350_a_at) / Fold change /veh FAM212B (11763350_a_at) / RFU PLEKHG5 (11743358_a_at) / Fold change /veh PLEKHG5 (11743358_a_at) / RFU ZSCAN30 (11745921_a_at) / Fold change /veh ZSCAN30 (11745921_a_at) / RFU CMKLR1 (11741424_a_at) / Fold change /veh CMKLR1 (11741424_a_at) / RFU LOC101060620 /// MAPK8IP1 (11723275_at) / Fold change /veh LOC101060620 /// MAPK8IP1 (11723275_at) / RFU SPTSSB (11747773_x_at) / Fold change /veh SPTSSB (11747773_x_at) / RFU PRSS12 (11739890_at) / Fold change /veh PRSS12 (11739890_at) / RFU BIN1 (11741810_x_at) / Fold change /veh BIN1 (11741810_x_at) / RFU WNT11 (11732464_a_at) / Fold change /veh WNT11 (11732464_a_at) / RFU C10orf10 (11716521_a_at) / Fold change /veh C10orf10 (11716521_a_at) / RFU C5orf56 (11738089_at) / Fold change /veh C5orf56 (11738089_at) / RFU CYB561 (11721691_x_at) / Fold change /veh CYB561 (11721691_x_at) / RFU ANKRD19P (11752326_a_at) / Fold change /veh ANKRD19P (11752326_a_at) / RFU OR2T12 /// OR2T33 /// OR2T8 (11738714_s_at) / Fold change /veh OR2T12 /// OR2T33 /// OR2T8 (11738714_s_at) / RFU VCAN (11748164_a_at) / Fold change /veh VCAN (11748164_a_at) / RFU JSRP1 (11732532_at) / Fold change /veh JSRP1 (11732532_at) / RFU KRTAP10-11 (11738290_x_at) / Fold change /veh KRTAP10-11 (11738290_x_at) / RFU MYO3A (11730013_a_at) / Fold change /veh MYO3A (11730013_a_at) / RFU EBF3 (11725865_a_at) / Fold change /veh EBF3 (11725865_a_at) / RFU CAMK2N1 (11719241_x_at) / Fold change /veh CAMK2N1 (11719241_x_at) / RFU C5orf56 (11738088_a_at) / Fold change /veh C5orf56 (11738088_a_at) / RFU OLFML3 (11715873_a_at) / Fold change /veh OLFML3 (11715873_a_at) / RFU LOC100653217 /// NTM (11731650_a_at) / Fold change /veh LOC100653217 /// NTM (11731650_a_at) / RFU MAPK11 (11762145_a_at) / Fold change /veh MAPK11 (11762145_a_at) / RFU FIZ1 (11724087_x_at) / Fold change /veh FIZ1 (11724087_x_at) / RFU OASL (11726364_x_at) / Fold change /veh OASL (11726364_x_at) / RFU SOX15 (11748057_x_at) / Fold change /veh SOX15 (11748057_x_at) / RFU CD79A (11719716_a_at) / Fold change /veh CD79A (11719716_a_at) / RFU HIST1H1D (11736915_at) / Fold change /veh HIST1H1D (11736915_at) / RFU CASKIN2 (11723855_a_at) / Fold change /veh CASKIN2 (11723855_a_at) / RFU LOC730098 (11760151_x_at) / Fold change /veh LOC730098 (11760151_x_at) / RFU OR4N2 (11742367_at) / Fold change /veh OR4N2 (11742367_at) / RFU PRRT2 (11749266_a_at) / Fold change /veh PRRT2 (11749266_a_at) / RFU SNX32 (11753110_a_at) / Fold change /veh SNX32 (11753110_a_at) / RFU CDHR5 (11726645_a_at) / Fold change /veh CDHR5 (11726645_a_at) / RFU RCAN1 (11760418_a_at) / Fold change /veh RCAN1 (11760418_a_at) / RFU FAM167A (11723789_a_at) / Fold change /veh FAM167A (11723789_a_at) / RFU FAM26E (11764081_at) / Fold change /veh FAM26E (11764081_at) / RFU ISYNA1 (11749810_s_at) / Fold change /veh ISYNA1 (11749810_s_at) / RFU ACY1 (11761880_at) / Fold change /veh ACY1 (11761880_at) / RFU 11764098_at / Fold change /veh 11764098_at / RFU SAMD14 (11745864_x_at) / Fold change /veh SAMD14 (11745864_x_at) / RFU NPB (11741838_a_at) / Fold change /veh NPB (11741838_a_at) / RFU TMPRSS6 (11731388_a_at) / Fold change /veh TMPRSS6 (11731388_a_at) / RFU KRTAP10-2 (11738614_at) / Fold change /veh KRTAP10-2 (11738614_at) / RFU ARHGAP8 /// PRR5-ARHGAP8 (11727945_x_at) / Fold change /veh ARHGAP8 /// PRR5-ARHGAP8 (11727945_x_at) / RFU KRTAP5-7 /// NADSYN1 (11734609_at) / Fold change /veh KRTAP5-7 /// NADSYN1 (11734609_at) / RFU RASL12 (11751679_a_at) / Fold change /veh RASL12 (11751679_a_at) / RFU CDKN2B (11736163_a_at) / Fold change /veh CDKN2B (11736163_a_at) / RFU PRF1 (11729649_at) / Fold change /veh PRF1 (11729649_at) / RFU, ZNF638 /// ZNF638-IT1 / Fold change vs veh, ZNF638 /// ZNF638-IT1 / RFU, PANK3 / Fold change vs veh, PANK3 / RFU, SH3YL1 / Fold change vs veh, SH3YL1 / RFU, ZEB2 / Fold change vs veh, ZEB2 / RFU, NRIP1 / Fold change vs veh, NRIP1 / RFU, PTTG1IP / Fold change vs veh, PTTG1IP / RFU, CAPN2 / Fold change vs veh, CAPN2 / RFU, MED14 / Fold change vs veh, MED14 / RFU, SNORA58 / Fold change vs veh, SNORA58 / RFU, C1orf63 / Fold change vs veh, C1orf63 / RFU, LRRFIP1 / Fold change vs veh, LRRFIP1 / RFU, NDUFAF7 / Fold change vs veh, NDUFAF7 / RFU, SLC12A2 / Fold change vs veh, SLC12A2 / RFU, IBTK / Fold change vs veh, IBTK / RFU, ESF1 / Fold change vs veh, ESF1 / Fold change vs veh, TMEM50B / RFU, TAOK1 / Fold change vs veh, TAOK1 / RFU, ACBD3 / Fold change vs veh, ACBD3 / RFU, TMA16 / Fold change vs veh, TMA16 / RFU, RWDD3 / Fold change vs veh, RWDD3 / RFU, BCAT1 / Fold change vs veh, BCAT1 / RFU, EDEM3 / Fold change vs veh, EDEM3 / RFU, TMEM33 / Fold change vs veh, TMEM33 / RFU, WDR75 / Fold change vs veh, WDR75 / RFU, AHCTF1 / Fold change vs veh, AHCTF1 / RFU, TFRC / Fold change vs veh, TFRC / RFU, ZDHHC17 / Fold change vs veh, ZDHHC17 / RFU, NOM1 / Fold change vs veh, NOM1 / RFU, ARL8B / Fold change vs veh, ARL8B / RFU, ZBTB11 / Fold change vs veh, ZBTB11 / RFU, TAMM41 / Fold change vs veh, TAMM41 / RFU, KIAA1704 /// LOC100996395 / Fold change vs veh, KIAA1704 /// LOC100996395 / RFU, ING1 / Fold change vs veh, ING1 / RFU, TRMT61B / Fold change vs veh, TRMT61B / RFU, FUBP3 / Fold change vs veh, FUBP3 / RFU, TP53 / Fold change vs veh, TP53 / RFU, TNKS2 / Fold change vs veh, TNKS2 / RFU, ZFP14 / Fold change vs veh, ZFP14 / RFU, ACTR2 / Fold change vs veh, ACTR2 / RFU, PPP3R1 / Fold change vs veh, PPP3R1 / RFU, PIK3R1 / Fold change vs veh, PIK3R1 / RFU, HNRNPA1 / Fold change vs veh, HNRNPA1 / RFU, RNF170 / Fold change vs veh, RNF170 / RFU, ZNF28 / Fold change vs veh, ZNF28 / RFU, RNGTT / Fold change vs veh, RNGTT / RFU, OGT / Fold change vs veh, OGT / RFU, BRD1 / Fold change vs veh, BRD1 / RFU, MARS / Fold change vs veh, MARS / RFU, ZNF655 / Fold change vs veh, ZNF655 / RFU, FAHD1 / Fold change vs veh, FAHD1 / RFU, BDP1 / Fold change vs veh, BDP1 / RFU, LRRCC1 / Fold change vs veh, LRRCC1 / RFU, ARID1A / Fold change vs veh, ARID1A / RFU, ZNF146 / Fold change vs veh, ZNF146 / RFU, ZNF330 / Fold change vs veh, ZNF330 / RFU, GPN3 / Fold change vs veh, GPN3 / RFU, C9orf123 / Fold change vs veh, C9orf123 / RFU, N4BP2L2 / Fold change vs veh, N4BP2L2 / RFU, ARFIP1 / Fold change vs veh, ARFIP1 / RFU, FAM179B / Fold change vs veh, FAM179B / RFU, BCL10 / Fold change vs veh, BCL10 / RFU, UHRF1BP1L / Fold change vs veh, UHRF1BP1L / RFU, BET1 / Fold change vs veh, BET1 / RFU, CNOT2 / Fold change vs veh, CNOT2 / RFU, ZNF268 / Fold change vs veh, ZNF268 / Fold change vs veh, ZNF507 / RFU, DGCR2 / Fold change vs veh, DGCR2 / RFU, WDSUB1 / Fold change vs veh, WDSUB1 / Fold change vs veh, HSP90B1 /// MIR3652 / RFU, ADSS / Fold change vs veh, ADSS / RFU, GK / Fold change vs veh, GK / RFU, ZNF148 / Fold change vs veh, ZNF148 / RFU, TAF9 / Fold change vs veh, TAF9 / RFU, SLC1A5 / Fold change vs veh, SLC1A5 / RFU, SLMO2 / Fold change vs veh, SLMO2 / RFU, ABCC4 / Fold change vs veh, ABCC4 / RFU, LOC101060439 /// RAP1B / Fold change vs veh, LOC101060439 /// RAP1B / RFU, RFX7 / Fold change vs veh, RFX7 / RFU, GTPBP10 / Fold change vs veh, GTPBP10 / RFU, CNEP1R1 / Fold change vs veh, CNEP1R1 / RFU, BIVM-ERCC5 /// ERCC5 / Fold change vs veh, BIVM-ERCC5 /// ERCC5 / RFU, ILF3 / Fold change vs veh, ILF3 / RFU 11762660_at / Fold change /veh 11762660_at / RFU VCAN (11757783_s_at) / Fold change /veh VCAN (11757783_s_at) / RFU DDX43 (11728927_at) / Fold change /veh DDX43 (11728927_at) / RFU KRT8 (11758188_x_at) / Fold change /veh KRT8 (11758188_x_at) / RFU NKD1 (11759106_at) / Fold change /veh NKD1 (11759106_at) / RFU SRD5A1 (11742802_a_at) / Fold change /veh SRD5A1 (11742802_a_at) / RFU TPSAB1 /// TPSB2 (11721975_s_at) / Fold change /veh TPSAB1 /// TPSB2 (11721975_s_at) / RFU GSTM3 (11746129_a_at) / Fold change /veh GSTM3 (11746129_a_at) / RFU IL23R (11737362_x_at) / Fold change /veh IL23R (11737362_x_at) / RFU TMEM51 (11727254_a_at) / Fold change /veh TMEM51 (11727254_a_at) / RFU PIWIL2 (11732686_x_at) / Fold change /veh PIWIL2 (11732686_x_at) / RFU ORM1 (11744905_x_at) / Fold change /veh ORM1 (11744905_x_at) / RFU CCDC152 (11743942_at) / Fold change /veh CCDC152 (11743942_at) / RFU ECM1 (11717891_a_at) / Fold change /veh ECM1 (11717891_a_at) / RFU IL23R (11748794_a_at) / Fold change /veh IL23R (11748794_a_at) / RFU TNFAIP8L3 (11732012_x_at) / Fold change /veh TNFAIP8L3 (11732012_x_at) / RFU MBOAT4 (11741988_at) / Fold change /veh MBOAT4 (11741988_at) / RFU 11764193_at / Fold change /veh 11764193_at / RFU TMEM53 (11763286_at) / Fold change /veh TMEM53 (11763286_at) / RFU MAGEB2 (11727129_at) / Fold change /veh MAGEB2 (11727129_at) / RFU TMEM200A (11744735_a_at) / Fold change /veh TMEM200A (11744735_a_at) / RFU CCDC152 (11751479_a_at) / Fold change /veh CCDC152 (11751479_a_at) / RFU FAM211A (11726209_a_at) / Fold change /veh FAM211A (11726209_a_at) / RFU RGS16 (11746705_a_at) / Fold change /veh RGS16 (11746705_a_at) / RFU VCAN (11755009_s_at) / Fold change /veh VCAN (11755009_s_at) / RFU RHOB (11743442_s_at) / Fold change /veh RHOB (11743442_s_at) / RFU RGS16 (11720943_a_at) / Fold change /veh RGS16 (11720943_a_at) / RFU RGS16 (11720944_at) / Fold change /veh RGS16 (11720944_at) / RFU, VPS4B / Fold change vs veh, VPS4B / RFU, CREB1 / Fold change vs veh, CREB1 / RFU, DNAJC13 / Fold change vs veh, DNAJC13 / RFU, GNAQ / Fold change vs veh, GNAQ / RFU, CDK5R1 / Fold change vs veh, CDK5R1 / RFU, ZRANB3 / Fold change vs veh, ZRANB3 / RFU, CUL4A / Fold change vs veh, CUL4A / RFU, CCNY / Fold change vs veh, CCNY / RFU, UFL1 / Fold change vs veh, UFL1 / RFU, COG3 / Fold change vs veh, COG3 / RFU, DIAPH2 / Fold change vs veh, DIAPH2 / RFU, SKA2 / Fold change vs veh, SKA2 / RFU, AFF3 / Fold change vs veh, AFF3 / RFU, LMF1 / Fold change vs veh, LMF1 / RFU, IPO11 / Fold change vs veh, IPO11 / RFU, DFFB / Fold change vs veh, DFFB / RFU, FOXP1 / Fold change vs veh, FOXP1 / RFU, CARD8 / Fold change vs veh, CARD8 / RFU, STRN3 / Fold change vs veh, STRN3 / RFU, ADK / Fold change vs veh, ADK / RFU, RASSF2 / Fold change vs veh, RASSF2 / RFU, WIPF1 / Fold change vs veh, WIPF1 / RFU, LARP1B / Fold change vs veh, LARP1B / RFU, RASA1 / Fold change vs veh, RASA1 / RFU, RB1 / Fold change vs veh, RB1 / RFU, PPFIA1 / Fold change vs veh, PPFIA1 / RFU, MAT2A / Fold change vs veh, MAT2A / RFU, CCT5 / Fold change vs veh, CCT5 / RFU, WDR92 / Fold change vs veh, WDR92 / RFU, CUX1 / Fold change vs veh, CUX1 / RFU, TTC7A / Fold change vs veh, TTC7A / RFU, TMEM135 / Fold change vs veh, TMEM135 / RFU, DEPTOR / Fold change vs veh, DEPTOR / RFU, CPM / Fold change vs veh, CPM / RFU, DNAJB6 / Fold change vs veh, DNAJB6 / RFU, CACNA2D3 / Fold change vs veh, CACNA2D3 / RFU, DTX4 / Fold change vs veh, DTX4 / RFU, TFCP2 / Fold change vs veh, TFCP2 / RFU, GMCL1 /// GMCL1P1 / Fold change vs veh, GMCL1 /// GMCL1P1 / RFU, AEBP2 / Fold change vs veh, AEBP2 / RFU, SNHG1 /// SNORD22 /// SNORD25 /// SNORD26 /// SNORD27 /// SNORD28 /// SNORD29 /// SNORD31 / Fold change vs veh, SNHG1 /// SNORD22 /// SNORD25 /// SNORD26 /// SNORD27 /// SNORD28 /// SNORD29 /// SNORD31 / Fold change (Aza/veh), C12orf56 (ProbeSet 11735607_a_at) / Fold change (ACY-1035/veh), C12orf56 (ProbeSet 11735607_a_at) / Fold change (Aza/veh), FGFR1OP (ProbeSet 11751329_s_at) / Fold change (ACY-1035/veh), FGFR1OP (ProbeSet 11751329_s_at) / Fold change (Aza/veh), VPS36 (ProbeSet 11739960_a_at) / Fold change (ACY-1035/veh), VPS36 (ProbeSet 11739960_a_at) / RFU SYPL1 (11715823_x_at) / Fold change /veh SYPL1 (11715823_x_at) / RFU IGFBP7 (11715501_s_at) / Fold change /veh IGFBP7 (11715501_s_at) / RFU REEP3 (11722064_at) / Fold change /veh REEP3 (11722064_at) / RFU IGLL1 (11728026_x_at) / Fold change /veh IGLL1 (11728026_x_at): dose or concentration left out as unconfirmed. As to conditions: ProbeSet 11755159_a_at; LIST D.

Regarding `Nc1ccc(-c2cccs2)cc1NC(=O)c1ccc2c(c1)cc(C1CC1)n2CCN1CCOCC1` [ACY-1035], the “Fold change vs veh, COG3” value was determined as 0.96.
